What was measured:
Type in all cases: cell-based
[1] = test system: Ps. acruginosa ATCC 27853; assay: MIC, agar dilution; settings: Ps. acruginosa ATCC 27853
[2] = test system: S. hemolyticus AVHAH 88-3; assay: MIC, agar dilution; settings: S. hemolyticus AVHAH 88-3
E. coli #311 (MP) = assay: MIC, agar dilution; settings: E. coli #311 (MP)
[3] = test system: E. coli MC 4100 Tet sens.; assay: MIC, agar dilution
E. coli UBMS 89-1 Tet M = assay: microbe, parasite or virus in culture; settings: E. coli UBMS 89-1 Tet M
E. coli J3272 Tet D = assay: microbe, parasite or virus in culture; settings: E. coli J3272 Tet D
E. faecalis ATCC 29212 = assay: MIC, agar dilution; settings: E. faecalis ATCC 29212
[4] = test system: X. maltophilia NEMC 87210; assay: MIC, agar dilution
S. mariescens FPOR 8733 = assay: MIC, agar dilution
S. aureus IVES 2943 = assay: MIC, agar dilution; settings: S. aureus IVES 2943
S. aureus ATCC 29213 = assay: MIC, agar dilution; settings: S. aureus ATCC 29213
S. aureus NEMC 8769 = assay: MIC, agar dilution; settings: S. aureus NEMC 8769
[5] = test system: S. aureus UBMS 90-1 Tet M; assay: microbe, parasite or virus in culture; settings: S. aureus UBMS 90-1 Tet M
[6] = test system: S. aureus UBMS 88-5 Tet M; assay: microbe, parasite or virus in culture; settings: S. aureus UBMS 88-5 Tet M
S. aureus UBMS 88-4 = assay: MIC, agar dilution; settings: S. aureus UBMS 88-4
S. aureus UBMS 90-3 = assay: MIC, agar dilution; settings: S. aureus UBMS 90-3
S. aureus SMITH (MP) = assay: MIC, agar dilution; settings: S. aureus SMITH (MP)
[7] = test system: S. aureus UBMS 88-7 Tet K; assay: microbe, parasite or virus in culture; settings: S. aureus UBMS 88-7 Tet K
E. coli ATCC 25922 = assay: MIC, agar dilution; settings: E. coli ATCC 25922
E. coli UBMS 88-1 Tet B = assay: microbe, parasite or virus in culture; settings: E. coli UBMS 88-1 Tet B; 18 hours at 35° C.
[8] = test system: S. aureus UBMS 90-2 Tet M; assay: microbe, parasite or virus in culture; settings: S. aureus UBMS 90-2 Tet M
Enterococcus 12201 = assay: MIC, agar dilution; settings: Enterococcus 12201
S. aureus ROSE (MP) = assay: MIC, agar dilution; settings: S. aureus ROSE (MP)
S. aureus IVES 1 983 = assay: MIC, agar dilution; settings: S. aureus IVES 1 983
E. coli BAJ9003 IMP MUT = assay: microbe, parasite or virus in culture; settings: E. coli BAJ9003 IMP MUT
E. coli UBMS 90-4 Tet M = assay: microbe, parasite or virus in culture; settings: E. coli UBMS 90-4 Tet M
E. coli PRP1 Tet A = assay: microbe, parasite or virus in culture; settings: E. coli PRP1 Tet A
E. coli J2175 = assay: MIC, agar dilution; settings: E. coli J2175
[9] = test system: E. coli MC 4100 TNIOC Tet B; assay: microbe, parasite or virus in culture; settings: E. coli MC 4100 TNIOC Tet B
[10] = test system: E. coli UBMS 89-2 Tet sens.; assay: MIC, agar dilution; settings: E. coli UBMS 89-2 Tet sens.
E. coli UBMS 90-5 = assay: MIC, agar dilution
E. coli J3272 Tet C = assay: microbe, parasite or virus in culture; settings: E. coli J3272 Tet C

Measured: MIC

CN(C)c1cc(NC(=O)CNCCCCO)c(O)c2c1C[C@H]1C[C@H]3[C@H](N(C)C)C(O)=C(C(N)=O)C(=O)[C@@]3(O)C(O)=C1C2=O [R]
4 µg/mL: E. coli BAJ9003 IMP MUT
> 32 µg/mL: [1] | S. aureus IVES 2943 | E. coli UBMS 88-1 Tet B | S. aureus ROSE (MP) | S. aureus IVES 1 983
32 µg/mL: [2] | E. coli #311 (MP) | E. coli UBMS 89-1 Tet M | [5] | [6] | [7] | E. coli ATCC 25922
16 µg/mL: S. aureus ATCC 29213 | [8]
not listed: E. coli UBMS 90-4 Tet M | E. coli PRP1 Tet A | E. coli J2175 | [9] | [10] | E. coli UBMS 90-5 | E. coli J3272 Tet C
8 µg/mL: all other assays above

CN(C)c1cc(NC(=O)CNCCF)c(O)c2c1CC1CC3C(N(C)C)C(O)=C(C(N)=O)C(=O)C3(O)C(O)=C1C2=O (stereo not drawn) [T, [4S-(4alpha,12aalpha)]-4,7-Bis(dimethylamino)-9-[[[(2-fluoroethyl)amino]acetyl]amino]-1,4,4a,5,5a,6,11,12a-octahydro3,10,12,12a-tetrahydroxy-1,11-dioxo-2-naphthacenecarboxamide]
4 µg/mL: S. aureus ATCC 29213 | S. aureus NEMC 8769 | [5] | [6] | S. aureus UBMS 88-4 | [8]
2 µg/mL: [3] | S. aureus UBMS 90-3 | Enterococcus 12201
8 µg/mL: [2] | E. coli UBMS 90-4 Tet M | E. coli UBMS 89-1 Tet M | E. coli J3272 Tet D | E. coli ATCC 25922
1 µg/mL: E. faecalis ATCC 29212 | S. aureus SMITH (MP) | E. coli BAJ9003 IMP MUT
> 32 µg/mL: [1] | E. coli PRP1 Tet A | S. mariescens FPOR 8733
16 µg/mL: E. coli #311 (MP) | [4] | E. coli J2175 | [9] | E. coli UBMS 88-1 Tet B | [10] | E. coli UBMS 90-5

CN(C)c1cc(NC(=O)CNCCN2CCCCC2)c(O)c2c1C[C@H]1C[C@H]3[C@H](N(C)C)C(O)=C(C(N)=O)C(=O)[C@@]3(O)C(O)=C1C2=O [U, [4S-(4alpha,12alpha)]-4,7-Bis(dimethylamino)-1,4,4a,5,5a,6,11,12a-octahydro3,10,12,12a-tetrahydroxy-1,11-dioxo-9-[[[[2-(1-piperidinyl)ethyl]amino]acetyl]amino]-2-naphthacenecarboxamide]
32 µg/mL: [2] | E. coli J2175 | [5] | [9] | [10]
> 32 µg/mL: [1] | E. coli PRP1 Tet A | S. mariescens FPOR 8733 | S. aureus IVES 2943 | E. coli UBMS 88-1 Tet B | S. aureus ROSE (MP) | S. aureus IVES 1 983
8 µg/mL: E. faecalis ATCC 29212 | S. aureus ATCC 29213 | S. aureus NEMC 8769 | S. aureus UBMS 88-4 | S. aureus UBMS 90-3 | S. aureus SMITH (MP) | [8]
2 µg/mL: E. coli BAJ9003 IMP MUT
4 µg/mL: [3]
not listed: E. coli J3272 Tet D | Enterococcus 12201
16 µg/mL: all other assays above
